Results taken from patent US12516022B2, “Derivatives of aryl hydrocarbon receptor agonists” (AZORA THERAPEUTICS, INC., priority 2021, dated 2026).

experiment: Time course of conversion to indirubin in FaSSGF at 37° C.;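 further: compound incubated in fasted state simulated gastric fluid, species in samples quantified by UPLC-MS with UV (210–400 nm) and ELS detection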; type: physicochemical; details: FaSSGF (Example 4; table title prints FaSSIF) 37° C., 15 min

Structure (SMILES)	indirubin	indirubin methylene alcohol	starting material (prodrug compound)
O=C1/C(=C2/C(=O)N(C(=O)NC3CCOCC3)c3ccccc32)Nc2ccccc21 [drawing 278]	7%	0%	69%
CNCCNC(=O)N1C(=O)/C(=C2\Nc3ccccc3C2=O)c2ccccc21.Cl [drawing 279]	0%	0%	100%
CC(=O)N1CCN(CN2C(=O)/C(=C3\Nc4ccccc4C3=O)c3ccccc32)CC1 [drawing 281]	4%	4%	92%

same assay, conditions: FaSSGF (Example 4; table title prints FaSSIF) 37° C., 30 min

Structure (SMILES)	indirubin	indirubin methylene alcohol	starting material (prodrug compound)
O=C1/C(=C2/C(=O)N(C(=O)NC3CCOCC3)c3ccccc32)Nc2ccccc21 [drawing 278]	12%	0%	61%
CNCCNC(=O)N1C(=O)/C(=C2\Nc3ccccc3C2=O)c2ccccc21.Cl [drawing 279]	0%	0%	100%
CC(=O)N1CCN(CN2C(=O)/C(=C3\Nc4ccccc4C3=O)c3ccccc32)CC1 [drawing 281]	3%	0%	97%

same assay, conditions: FaSSGF (Example 4; table title prints FaSSIF) 37° C., 1 h

Structure (SMILES)	indirubin	indirubin methylene alcohol	starting material (prodrug compound)
O=C1/C(=C2/C(=O)N(C(=O)NC3CCOCC3)c3ccccc32)Nc2ccccc21 [drawing 278]	11%	0%	82%
CNCCNC(=O)N1C(=O)/C(=C2\Nc3ccccc3C2=O)c2ccccc21.Cl [drawing 279]	0%	0%	100%
CC(=O)N1CCN(CN2C(=O)/C(=C3\Nc4ccccc4C3=O)c3ccccc32)CC1 [drawing 281]	4%	4%	87%

same assay, conditions: FaSSGF (Example 4; table title prints FaSSIF) 37° C., 2 h

Structure (SMILES)	indirubin	indirubin methylene alcohol	starting material (prodrug compound)
O=C1/C(=C2/C(=O)N(C(=O)NC3CCOCC3)c3ccccc32)Nc2ccccc21 [drawing 278]	9%	0%	58%
CNCCNC(=O)N1C(=O)/C(=C2\Nc3ccccc3C2=O)c2ccccc21.Cl [drawing 279]	0%	0%	100%
CC(=O)N1CCN(CN2C(=O)/C(=C3\Nc4ccccc4C3=O)c3ccccc32)CC1 [drawing 281]	3%	0%	97%

same assay, conditions: FaSSGF (Example 4; table title prints FaSSIF) 37° C., 24 h

Structure (SMILES)	indirubin	indirubin methylene alcohol	starting material (prodrug compound)
O=C1/C(=C2/C(=O)N(C(=O)NC3CCOCC3)c3ccccc32)Nc2ccccc21 [drawing 278]	10%	0%	86%
CNCCNC(=O)N1C(=O)/C(=C2\Nc3ccccc3C2=O)c2ccccc21.Cl [drawing 279]	0%	0%	100%
CC(=O)N1CCN(CN2C(=O)/C(=C3\Nc4ccccc4C3=O)c3ccccc32)CC1 [drawing 281]	0%	0%	100%

same assay, conditions: FaSSGF (Example 4; table title prints FaSSIF) 37° C., over a 24 hour period

Structure (SMILES)	Conversion to indirubin
O=C1/C(=C2/C(=O)N(C(=O)NC3CCOCC3)c3ccccc32)Nc2ccccc21 [drawing 278]	0-20%
CNCCNC(=O)N1C(=O)/C(=C2\Nc3ccccc3C2=O)c2ccccc21.Cl [drawing 279]	0-20%
O=C1/C(=C2/C(=O)N(CN3CCC(F)(F)CC3)c3ccccc32)Nc2ccccc21 [drawing 280]	0-20%
CC(=O)N1CCN(CN2C(=O)/C(=C3\Nc4ccccc4C3=O)c3ccccc32)CC1 [drawing 281]	0-20%

experiment: Time course of conversion to indirubin in FaSSIF at 37° C.;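 further: test compound, about 1-3 mg in 5 mL FaSSIF, sampled and analysed by UPLC-MS with PDA UV (210-400 nm), QDa mass and evaporative light scattering detection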; type: physicochemical; details: FaSSIF 37° C. 24 h

Structure (SMILES)	indirubin	indirubin methylene alcohol	starting material (prodrug compound)
CCN(CC)CN1C(=O)/C(=C2\Nc3ccccc3C2=O)c2ccccc21 [drawing 252]	100%	0%	0%
CN(C)CCN(C)CN1C(=O)/C(=C2\Nc3ccccc3C2=O)c2ccccc21 [drawing 253]	87%	7%	0%
O=C1/C(=C2/C(=O)N(CN3CCCC3)c3ccccc32)Nc2ccccc21 [drawing 255]	100%	0%	0%
CN(C)C1CCN(CN2C(=O)/C(=C3\Nc4ccccc4C3=O)c3ccccc32)CC1 [drawing 256]	72%	6%	0%
CN(C)CCN(CCN(C)C)CN1C(=O)/C(=C2\Nc3ccccc3C2=O)c2ccccc21 [drawing 257]	74%	4%	0%
CC(=O)N1CCN(CN2C(=O)/C(=C3\Nc4ccccc4C3=O)c3ccccc32)CC1 [drawing 258]	37%	14%	10%
O=C1/C(=C2/C(=O)N(CO)c3ccccc32)Nc2ccccc21 [drawing 259]	17%		73%
O=C1/C(=C2/C(=O)N(CN3CCC(F)(F)CC3)c3ccccc32)Nc2ccccc21 [drawing 260]	40%	0%	52%
O=C1/C(=C2/C(=O)N(CN3CCOCC3)c3ccccc32)Nc2ccccc21 [drawing 261]	24%	7%	46%
O=C1/C(=C2/C(=O)N(COS(=O)(=O)O)c3ccccc32)Nc2ccccc21 [drawing 262]	12%	83%	0%
O=C1/C(=C2/C(=O)N(C(=O)NC3CCOCC3)c3ccccc32)Nc2ccccc21 [drawing 263]	6%	0%	55%

same assay, conditions: FaSSIF 37° C., 15 min

Structure (SMILES)	indirubin	indirubin methylene alcohol	starting material (prodrug compound)
CCN(CC)CN1C(=O)/C(=C2\Nc3ccccc3C2=O)c2ccccc21 [drawing 252]	100%	0%	0%
CN(C)CCN(C)CN1C(=O)/C(=C2\Nc3ccccc3C2=O)c2ccccc21 [drawing 253]	90%	7%	0%
O=C1/C(=C2/C(=O)N(CN3CCCC3)c3ccccc32)Nc2ccccc21 [drawing 255]	100%	0%	0%
CN(C)C1CCN(CN2C(=O)/C(=C3\Nc4ccccc4C3=O)c3ccccc32)CC1 [drawing 256]	61%	5%	30%
CN(C)CCN(CCN(C)C)CN1C(=O)/C(=C2\Nc3ccccc3C2=O)c2ccccc21 [drawing 257]	78%	13%	6%
CC(=O)N1CCN(CN2C(=O)/C(=C3\Nc4ccccc4C3=O)c3ccccc32)CC1 [drawing 258]	8%	12%	31%
O=C1/C(=C2/C(=O)N(CO)c3ccccc32)Nc2ccccc21 [drawing 259]	12%		81%
O=C1/C(=C2/C(=O)N(CN3CCC(F)(F)CC3)c3ccccc32)Nc2ccccc21 [drawing 260]	45%	0%	54%
O=C1/C(=C2/C(=O)N(CN3CCOCC3)c3ccccc32)Nc2ccccc21 [drawing 261]	5%	0%	69%
O=C1/C(=C2/C(=O)N(COS(=O)(=O)O)c3ccccc32)Nc2ccccc21 [drawing 262]	7%	79%	0%
O=C1/C(=C2/C(=O)N(C(=O)NC3CCOCC3)c3ccccc32)Nc2ccccc21 [drawing 263]	8%	0%	50%

same assay, conditions: FaSSIF 37° C., 30 min

Structure (SMILES)	indirubin	indirubin methylene alcohol	starting material (prodrug compound)
CCN(CC)CN1C(=O)/C(=C2\Nc3ccccc3C2=O)c2ccccc21 [drawing 252]	100%	0%	0%
CN(C)CCN(C)CN1C(=O)/C(=C2\Nc3ccccc3C2=O)c2ccccc21 [drawing 253]	90%	7%	0%
O=C1/C(=C2/C(=O)N(CN3CCCC3)c3ccccc32)Nc2ccccc21 [drawing 255]	100%	0%	0%
CN(C)C1CCN(CN2C(=O)/C(=C3\Nc4ccccc4C3=O)c3ccccc32)CC1 [drawing 256]	62%	5%	31%
CN(C)CCN(CCN(C)C)CN1C(=O)/C(=C2\Nc3ccccc3C2=O)c2ccccc21 [drawing 257]	78%	13%	6%
CC(=O)N1CCN(CN2C(=O)/C(=C3\Nc4ccccc4C3=O)c3ccccc32)CC1 [drawing 258]	12%	14%	37%
O=C1/C(=C2/C(=O)N(CO)c3ccccc32)Nc2ccccc21 [drawing 259]	15%		82%
O=C1/C(=C2/C(=O)N(CN3CCC(F)(F)CC3)c3ccccc32)Nc2ccccc21 [drawing 260]	29%	0%	39%
O=C1/C(=C2/C(=O)N(CN3CCOCC3)c3ccccc32)Nc2ccccc21 [drawing 261]	8%	3%	80%
O=C1/C(=C2/C(=O)N(COS(=O)(=O)O)c3ccccc32)Nc2ccccc21 [drawing 262]	14%	73%	0%
O=C1/C(=C2/C(=O)N(C(=O)NC3CCOCC3)c3ccccc32)Nc2ccccc21 [drawing 263]	5%	0%	44%

same assay, conditions: FaSSIF 37° C., 1 h

Structure (SMILES)	indirubin	indirubin methylene alcohol	starting material (prodrug compound)
CCN(CC)CN1C(=O)/C(=C2\Nc3ccccc3C2=O)c2ccccc21 [drawing 252]	100%	0%	0%
CN(C)CCN(C)CN1C(=O)/C(=C2\Nc3ccccc3C2=O)c2ccccc21 [drawing 253]	89%	6%	0%
O=C1/C(=C2/C(=O)N(CN3CCCC3)c3ccccc32)Nc2ccccc21 [drawing 255]	100%	0%	0%
CN(C)C1CCN(CN2C(=O)/C(=C3\Nc4ccccc4C3=O)c3ccccc32)CC1 [drawing 256]	58%	5%	32%
CN(C)CCN(CCN(C)C)CN1C(=O)/C(=C2\Nc3ccccc3C2=O)c2ccccc21 [drawing 257]	78%	13%	6%
CC(=O)N1CCN(CN2C(=O)/C(=C3\Nc4ccccc4C3=O)c3ccccc32)CC1 [drawing 258]	12%	12%	30%
O=C1/C(=C2/C(=O)N(CO)c3ccccc32)Nc2ccccc21 [drawing 259]	14%		80%
O=C1/C(=C2/C(=O)N(CN3CCC(F)(F)CC3)c3ccccc32)Nc2ccccc21 [drawing 260]	18%	0%	37%
O=C1/C(=C2/C(=O)N(CN3CCOCC3)c3ccccc32)Nc2ccccc21 [drawing 261]	6%	0%	64%
O=C1/C(=C2/C(=O)N(COS(=O)(=O)O)c3ccccc32)Nc2ccccc21 [drawing 262]	7%	81%	0%
O=C1/C(=C2/C(=O)N(C(=O)NC3CCOCC3)c3ccccc32)Nc2ccccc21 [drawing 263]	5%	0%	33%

same assay, conditions: FaSSIF 37° C., 2 h

Structure (SMILES)	indirubin	indirubin methylene alcohol	starting material (prodrug compound)
CCN(CC)CN1C(=O)/C(=C2\Nc3ccccc3C2=O)c2ccccc21 [drawing 252]	100%	0%	0%
CN(C)CCN(C)CN1C(=O)/C(=C2\Nc3ccccc3C2=O)c2ccccc21 [drawing 253]	85%	6%	0%
O=C1/C(=C2/C(=O)N(CN3CCCC3)c3ccccc32)Nc2ccccc21 [drawing 255]	100%	0%	0%
CN(C)C1CCN(CN2C(=O)/C(=C3\Nc4ccccc4C3=O)c3ccccc32)CC1 [drawing 256]	70%	7%	22%
CN(C)CCN(CCN(C)C)CN1C(=O)/C(=C2\Nc3ccccc3C2=O)c2ccccc21 [drawing 257]	83%	10%	4%
CC(=O)N1CCN(CN2C(=O)/C(=C3\Nc4ccccc4C3=O)c3ccccc32)CC1 [drawing 258]	21%	10%	29%
O=C1/C(=C2/C(=O)N(CO)c3ccccc32)Nc2ccccc21 [drawing 259]	17%		79%
O=C1/C(=C2/C(=O)N(CN3CCC(F)(F)CC3)c3ccccc32)Nc2ccccc21 [drawing 260]	49%	0%	51%
O=C1/C(=C2/C(=O)N(CN3CCOCC3)c3ccccc32)Nc2ccccc21 [drawing 261]	7%	4%	65%
O=C1/C(=C2/C(=O)N(COS(=O)(=O)O)c3ccccc32)Nc2ccccc21 [drawing 262]	7%	83%	0%
O=C1/C(=C2/C(=O)N(C(=O)NC3CCOCC3)c3ccccc32)Nc2ccccc21 [drawing 263]	10%	1%	50%

same assay, conditions: FaSSIF 37° C., over a 24 hour period

Structure (SMILES)	Conversion to indirubin
CCN(CC)CN1C(=O)/C(=C2\Nc3ccccc3C2=O)c2ccccc21 [drawing 252]	80-100%
CN(C)CCN(C)CN1C(=O)/C(=C2\Nc3ccccc3C2=O)c2ccccc21 [drawing 253]	80-100%
O=C1/C(=C2/C(=O)N(CN3CCCCC3)c3ccccc32)Nc2ccccc21 [drawing 254]	80-100%
O=C1/C(=C2/C(=O)N(CN3CCCC3)c3ccccc32)Nc2ccccc21 [drawing 255]	80-100%
CN(C)C1CCN(CN2C(=O)/C(=C3\Nc4ccccc4C3=O)c3ccccc32)CC1 [drawing 256]	60-80%
CN(C)CCN(CCN(C)C)CN1C(=O)/C(=C2\Nc3ccccc3C2=O)c2ccccc21 [drawing 257]	60-80%
CC(=O)N1CCN(CN2C(=O)/C(=C3\Nc4ccccc4C3=O)c3ccccc32)CC1 [drawing 258]	40-60%
O=C1/C(=C2/C(=O)N(CO)c3ccccc32)Nc2ccccc21 [drawing 259]	20-40%
O=C1/C(=C2/C(=O)N(CN3CCC(F)(F)CC3)c3ccccc32)Nc2ccccc21 [drawing 260]	20-40%
O=C1/C(=C2/C(=O)N(CN3CCOCC3)c3ccccc32)Nc2ccccc21 [drawing 261]	20-40%
O=C1/C(=C2/C(=O)N(COS(=O)(=O)O)c3ccccc32)Nc2ccccc21 [drawing 262]	0-20%
O=C1/C(=C2/C(=O)N(C(=O)NC3CCOCC3)c3ccccc32)Nc2ccccc21 [drawing 263]	0-20%
